Results: article PMC11513618 (RSC Advances, 2024)
Square brackets hold non-standard residues; d marks the D form. Peptide text beside a SMILES is read from it. * marks the point of attachment. X1 = CC(=O)N[C@@H]1[C@@H](O[C@@H]2O[C@H](CO)[C@H](O)[C@H](O)[C@H]2O)[C@@H](O)[C@@H](CO[C@@H]2O[C@H](CO)[C@@H](O[C@@H]3O[C@H](CO)[C@H](O)[C@H](O[C@]4(C(=O)O)C[C@H](O)[C@@H](NC(C)=O)[C@H]([C@H](O)[C@H](O)CO)O4)[C@H]3O)[C@H](O[C@@H]3O[C@@H](C)[C@@H](O)[C@@H](O)[C@@H]3O)[C@H]2NC(C)=O)O[C@@H]1*; Phe(4-CH2SO3H) = N[C@@H](Cc1ccc(CS(=O)(=O)O)cc1)C(=O)O

Biological target: human P-selectin (Fc chimera) binding to PSGL-1 on U-937 monocytes (Homo sapiens, UniProt P16109)
Experiment: Flow cytometry: inhibition of P-selectin-Fc chimera binding to U-937 monocytes
Type: cell-based

Question: With `CC(=O)N[C@H]1[C@H](OC[C@H]2O[C@H](O[C@H](C)[C@H](NC(=O)[C@H](CCC(=O)O)NC(=O)[C@@H]3CCCN3C(=O)[C@H](CC(C)C)NC(=O)[C@H](Cc3ccccc3)NC(=O)[C@H](CC(=O)O)NC(=O)[C@H](Cc3ccc(CS(=O)(=O)O)cc3)NC(=O)[C@H](CC(=O)O)NC(=O)[C@H](CC(C)C)NC(=O)[C@H](Cc3ccc(CS(=O)(=O)O)cc3)NC(=O)[C@H](CCC(=O)O)NC(=O)[C@H](Cc3ccc(CS(=O)(=O)O)cc3)NC(=O)[C@H](CCC(=O)O)NC(=O)[C@H](CCCCN)NC(C)=O)C(=O)N[C@@H](CCC(=O)O)C(=O)N3CCC[C@H]3C(=O)N[C@@H](CC(C)C)C(=O)O)[C@H](NC(C)=O)[C@@H](O[C@@H]3O[C@H](CO)[C@H](O)[C@H](O)[C@H]3O)[C@H]2O)O[C@H](CO)[C@@H](O[C@@H]2O[C@H](CO)[C@H](O)[C@H](O[C@]3(C(=O)O)C[C@H](O)[C@@H](NC(C)=O)[C@H]([C@H](O)[C@H](O)CO)O3)[C@H]2O)[C@@H]1O[C@@H]1O[C@@H](C)[C@@H](O)[C@@H](O)[C@@H]1O` [GSnP-6] (Ac-KE[Phe(4-CH2SO3H)]E[Phe(4-CH2SO3H)]LD[Phe(4-CH2SO3H)]DFLPET(X1)EPL-OH; C-terminus assumed) as the compound, how does the IC50 read?
Answer: Its IC50 is 11.1 µM.
